Assay results: publication PMC6072100, “Exploring the links between peptoid antibacterial activity and toxicity” (MedChemComm, 2017)
Like-named read-outs stand apart in the source and are kept apart here. Square brackets hold non-standard residues; d marks the D form. Peptide text beside a SMILES is read from it. N(4-F-Bzl)Gly = O=C(O)CNCc1ccc(F)cc1; Gly(N-(CH2)6NH2) = NCCCCCCNCC(=O)O; Gly(N-2-aminoethyl) = NCCNCC(=O)O; Nspe = C[C@H](NCC(=O)O)c1ccccc1; NhArg = N=C(N)NCCCCNCC(=O)O; Nphe = O=C(O)CNCc1ccccc1; Nlys = NCCCCNCC(=O)O

Assays:
HaCaT cells = experiment: Skin cell toxicity assay with HaCaT (alamarBlue); assay type: cell-based, human
Procedure, shortened: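 HaCaT cells seeded at 2x10^4 per well 24 hours before 1-hour exposure to a 2–100 µM triplicate dilution series in DMEM high glucose with 10% FBS at 37 °C, 5% CO2. Viability assessed with alamarBlue; ED50 defined as dose killing 50% of cells, derived from dose-response data.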

HepG2 cells = experiment: Cytotoxicity assay with HepG2 (alamarBlue); assay type: cell-based, human
Procedure, shortened: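 HepG2 cells (2 × 10^4/well, seeded 1 day earlier) were exposed to compounds (2–100 μM dilution series, triplicate) for 1 h in reduced volume, then diluted with medium and incubated 24 h at 37 °C. Viability was read by alamarBlue after 2 h (Ex 560/Em 600 nm), and ED50 (dose killing 50% of cells) came from dose-response curves.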

[1] = human, HaCaT cells (keratinocytes), 24 h
[2] = dose that kills 50% of cells, 2–100 μM, 1 h with compound then 24 h, alamarBlue

Compound	ED50 HaCaT (HaCaT cells; [1]) [µM]	ED50 HepG2 (HepG2 cells) [µM]	ED50 HepG2 (HepG2 cells; human, HepG2 cells, 24 h) [µM]	further results
C[C@@H](c1ccccc1)N(CC(N)=O)C(=O)CN(C(=O)CN(CCCCN)C(=O)CN(Cc1ccc(F)cc1)C(=O)CN(Cc1ccc(F)cc1)C(=O)CN(CCCCN)C(=O)CN(C(=O)CN(C(=O)CN(CCCCN)C(=O)CN(Cc1ccc(F)cc1)C(=O)CN(Cc1ccc(F)cc1)C(=O)CNCCCCN)[C@@H](C)c1ccccc1)[C@@H](C)c1ccccc1)[C@@H](C)c1ccccc1 [Peptoid 28, [(NLysNpfbNpfb)(NLysNspeNspe)]2]	>100	55		toxicity to HaCaT or HepG2 (in words) (HaCaT cells): negligible toxicity
NCCCCNCC(=O)N(CC(=O)N(CC(=O)N(CCCCN)CC(=O)N(CC(=O)N(CC(=O)N(CCCCN)CC(=O)N(CC(=O)N(CC(N)=O)Cc1ccccc1)Cc1ccccc1)Cc1ccccc1)Cc1ccccc1)Cc1ccccc1)Cc1ccccc1 [Peptoid 5, (NLysNpheNphe)3]	>100		>100	
C[C@@H](c1ccccc1)N(CC(N)=O)C(=O)CN(C(=O)CN(CCN)C(=O)CN(C(=O)CN(C(=O)CNCCN)[C@@H](C)c1ccccc1)[C@@H](C)c1ccccc1)[C@@H](C)c1ccccc1 [Peptoid 18, (NaeNspeNspe)2]	>100		>100	
C[C@@H](c1ccccc1)N(CC(N)=O)C(=O)CN(C(=O)CN(CCCCN)C(=O)CN(C(=O)CN(C(=O)CNCCCCN)[C@@H](C)c1ccccc1)[C@@H](C)c1ccccc1)[C@@H](C)c1ccccc1 [Peptoid 15, (NLysNspeNspe)2] (H-[Nlys][Nspe][Nspe][Nlys][Nspe][Nspe]-NH2)	>100		>100	
NCCCCNCC(=O)N(CC(=O)N(CC(=O)N(CCCCN)CC(=O)N(CC(=O)N(CC(=O)N(CCCCN)CC(=O)N(CC(=O)N(CC(N)=O)Cc1ccc(F)cc1)Cc1ccc(F)cc1)Cc1ccc(F)cc1)Cc1ccc(F)cc1)Cc1ccc(F)cc1)Cc1ccc(F)cc1 [Peptoid 23, (NLysNpfbNpfb)3] (H-[Nlys][N(4-F-Bzl)Gly][N(4-F-Bzl)Gly][Nlys][N(4-F-Bzl)Gly][N(4-F-Bzl)Gly][Nlys][N(4-F-Bzl)Gly][N(4-F-Bzl)Gly]-NH2)	>100			toxicity to HaCaT or HepG2 (in words) (HaCaT cells): negligible toxicity
C[C@@H](c1ccccc1)N(CC(N)=O)C(=O)CN(C(=O)CN(CCCCNC(=N)N)C(=O)CN(C(=O)CN(C(=O)CN(CCCCNC(=N)N)C(=O)CN(C(=O)CN(C(=O)CN(CCCCNC(=N)N)C(=O)CN(C(=O)CN(C(=O)CNCCCCNC(=N)N)[C@@H](C)c1ccccc1)[C@@H](C)c1ccccc1)[C@@H](C)c1ccccc1)[C@@H](C)c1ccccc1)[C@@H](C)c1ccccc1)[C@@H](C)c1ccccc1)[C@@H](C)c1ccccc1 [Peptoid 34, (NhArgNspeNspe)4] (H-[NhArg][Nspe][Nspe][NhArg][Nspe][Nspe][NhArg][Nspe][Nspe][NhArg][Nspe][Nspe]-NH2)		12		ED50 HaCaT (HaCaT cells): 20 µM
NCCNCC(=O)N(CC(=O)N(CC(=O)N(CCN)CC(=O)N(CC(=O)N(CC(N)=O)Cc1ccccc1)Cc1ccccc1)Cc1ccccc1)Cc1ccccc1 [Peptoid 9, (NaeNpheNphe)2] (H-[Gly(N-2-aminoethyl)][Nphe][Nphe][Gly(N-2-aminoethyl)][Nphe][Nphe]-NH2)	>100		>100	
NCCCCCCNCC(=O)N(CC(=O)N(CC(=O)N(CCCCCCN)CC(=O)N(CC(=O)N(CC(=O)N(CCCCCCN)CC(=O)N(CC(=O)N(CC(=O)N(CCCCCCN)CC(=O)N(CC(=O)N(CC(N)=O)Cc1ccccc1)Cc1ccccc1)Cc1ccccc1)Cc1ccccc1)Cc1ccccc1)Cc1ccccc1)Cc1ccccc1)Cc1ccccc1 [Peptoid 1, (NahNpheNphe)4] (H-[Gly(N-(CH2)6NH2)][Nphe][Nphe][Gly(N-(CH2)6NH2)][Nphe][Nphe][Gly(N-(CH2)6NH2)][Nphe][Nphe][Gly(N-(CH2)6NH2)][Nphe][Nphe]-NH2)	>100		>100	
NCCNCC(=O)N(CC(=O)N(CC(=O)N(CCN)CC(=O)N(CC(=O)N(CC(=O)N(CCN)CC(=O)N(CC(=O)N(CC(=O)N(CCN)CC(=O)N(CC(=O)N(CC(N)=O)Cc1ccccc1)Cc1ccccc1)Cc1ccccc1)Cc1ccccc1)Cc1ccccc1)Cc1ccccc1)Cc1ccccc1)Cc1ccccc1 [Peptoid 7, (NaeNpheNphe)4] (H-[Gly(N-2-aminoethyl)][Nphe][Nphe][Gly(N-2-aminoethyl)][Nphe][Nphe][Gly(N-2-aminoethyl)][Nphe][Nphe][Gly(N-2-aminoethyl)][Nphe][Nphe]-NH2)	>100		>100	toxicity to HaCaT or HepG2 (in words) (HaCaT cells): negligible toxicity
C[C@@H](c1ccccc1)N(CC(N)=O)C(=O)CN(C(=O)CN(CCCCCCN)C(=O)CN(C(=O)CN(C(=O)CNCCCCCCN)[C@@H](C)c1ccccc1)[C@@H](C)c1ccccc1)[C@@H](C)c1ccccc1 [Peptoid 12, (NahNspeNspe)2]	>100		>100	
COc1ccc(CN(CC(N)=O)C(=O)CN(Cc2ccc(OC)cc2)C(=O)CN(CCCCN)C(=O)CN(Cc2ccc(OC)cc2)C(=O)CN(Cc2ccc(OC)cc2)C(=O)CN(CCCCN)C(=O)CN(Cc2ccc(OC)cc2)C(=O)CN(Cc2ccc(OC)cc2)C(=O)CN(CCCCN)C(=O)CN(Cc2ccc(OC)cc2)C(=O)CN(Cc2ccc(OC)cc2)C(=O)CNCCCCN)cc1 [Peptoid 19, (NLysNpmbNpmb)4]			>100	
CCCCCNCC(=O)N(CC(=O)N(CC(=O)N(CCCCC)CC(=O)N(CC(=O)N(CC(=O)N(CCCCN)CC(=O)N(CC(=O)N(CC(=O)N(CCCCN)CC(=O)N(CC(=O)N(CC(N)=O)[C@@H](C)c1ccccc1)[C@@H](C)c1ccccc1)[C@@H](C)c1ccccc1)[C@@H](C)c1ccccc1)[C@@H](C)c1ccccc1)[C@@H](C)c1ccccc1)[C@@H](C)c1ccccc1)[C@@H](C)c1ccccc1 [Peptoid 31, (NamyNspeNspe)2(NLysNspeNspe)2]		18		ED50 HaCaT (HaCaT cells): 20 µM
NCCNCC(=O)N(CC(=O)N(CC(=O)N(CCN)CC(=O)N(CC(=O)N(CC(=O)N(CCN)CC(=O)N(CC(=O)N(CC(N)=O)Cc1ccccc1)Cc1ccccc1)Cc1ccccc1)Cc1ccccc1)Cc1ccccc1)Cc1ccccc1 [Peptoid 8, (NaeNpheNphe)3] (H-[Gly(N-2-aminoethyl)][Nphe][Nphe][Gly(N-2-aminoethyl)][Nphe][Nphe][Gly(N-2-aminoethyl)][Nphe][Nphe]-NH2)	>100		>100	
(NhArgNmfbNmfb)4 [Peptoid 36]		21		ED50 HaCaT (HaCaT cells): 28 µM
NCCCCNCC(=O)N(CC(=O)N(CC(=O)N(CCCCN)CC(=O)N(CC(=O)N(CC(=O)N(CCCCN)CC(=O)N(CC(=O)N(CC(=O)N(CCCCN)CC(=O)N(CC(=O)N(CC(N)=O)Cc1ccc(F)cc1)Cc1ccc(F)cc1)Cc1ccc(F)cc1)Cc1ccc(F)cc1)Cc1ccc(F)cc1)Cc1ccc(F)cc1)Cc1ccc(F)cc1)Cc1ccc(F)cc1 [Peptoid 22, (NLysNpfbNpfb)4] (H-[Nlys][N(4-F-Bzl)Gly][N(4-F-Bzl)Gly][Nlys][N(4-F-Bzl)Gly][N(4-F-Bzl)Gly][Nlys][N(4-F-Bzl)Gly][N(4-F-Bzl)Gly][Nlys][N(4-F-Bzl)Gly][N(4-F-Bzl)Gly]-NH2)		30		ED50 HaCaT (HaCaT cells): 46 µM
C[C@@H](c1ccccc1)N(CC(N)=O)C(=O)CN(C(=O)CN(CCCCN)C(=O)CN(C(=O)CN(C(=O)CN(CCCCN)C(=O)CN(C(=O)CN(C(=O)CNCCCCN)[C@@H](C)c1ccccc1)[C@@H](C)c1ccccc1)[C@@H](C)c1ccccc1)[C@@H](C)c1ccccc1)[C@@H](C)c1ccccc1 [Peptoid 14, (NLysNspeNspe)3] (H-[Nlys][Nspe][Nspe][Nlys][Nspe][Nspe][Nlys][Nspe][Nspe]-NH2)				ED50 HaCaT (HaCaT cells; [2]): >100 µM; ED50 HepG2 (HepG2 cells; [2]): >100 µM
NCCCCNCC(=O)N(CC(=O)N(CC(=O)N(CCCCN)CC(=O)N(CC(=O)N(CC(=O)N(CCCCN)CC(=O)N(CC(=O)N(CC(=O)N(CCCCN)CC(=O)N(CC(=O)N(CC(N)=O)Cc1ccccc1)Cc1ccccc1)Cc1ccccc1)Cc1ccccc1)Cc1ccccc1)Cc1ccccc1)Cc1ccccc1)Cc1ccccc1 [Peptoid 4, (NLysNpheNphe)4] (H-[Nlys][Nphe][Nphe][Nlys][Nphe][Nphe][Nlys][Nphe][Nphe][Nlys][Nphe][Nphe]-NH2)		> 100	>100	toxicity to HaCaT or HepG2 (in words) (HaCaT cells): negligible toxicity
NCCCCCCNCC(=O)N(CC(=O)N(CC(=O)N(CCCCCCN)CC(=O)N(CC(=O)N(CC(N)=O)Cc1ccccc1)Cc1ccccc1)Cc1ccccc1)Cc1ccccc1 [Peptoid 3, (NahNpheNphe)2] (H-[Gly(N-(CH2)6NH2)][Nphe][Nphe][Gly(N-(CH2)6NH2)][Nphe][Nphe]-NH2)	>100		>100	
C[C@@H](c1ccccc1)N(CC(N)=O)C(=O)CN(C(=O)CN(CCCCCCN)C(=O)CN(C(=O)CN(C(=O)CN(CCCCCCN)C(=O)CN(C(=O)CN(C(=O)CNCCCCCCN)[C@@H](C)c1ccccc1)[C@@H](C)c1ccccc1)[C@@H](C)c1ccccc1)[C@@H](C)c1ccccc1)[C@@H](C)c1ccccc1 [Peptoid 11, (NahNspeNspe)3] (H-[Gly(N-(CH2)6NH2)][Nspe][Nspe][Gly(N-(CH2)6NH2)][Nspe][Nspe][Gly(N-(CH2)6NH2)][Nspe][Nspe]-NH2)	>100		>100	
NCCCCNCC(=O)N(CC(=O)N(CC(=O)N(CCCCN)CC(=O)N(CC(=O)N(CC(N)=O)Cc1ccccc1)Cc1ccccc1)Cc1ccccc1)Cc1ccccc1 [Peptoid 6, (NLysNpheNphe)2] (H-[Nlys][Nphe][Nphe][Nlys][Nphe][Nphe]-NH2)	>100		>100	
